Measurements: US9469650B2, “Melampomagnolide B derivatives” (BOARD OF TRUSTEES OF THE UNIVERSITY OF ARKANSAS, priority 2013, dated 2016)

Legend:
UACC-62 = assay: panel of 60 human tumor cell lines, growth inhibition (Melanoma)
DU-145 = assay: panel of 60 human tumor cell lines, growth inhibition (Prostate Cancer)
RXF 393 = assay: panel of 60 human tumor cell lines, growth inhibition (Renal Cancer); details: for GI50: RXF 393, RXF 393; for Percent Growth: RXF 393
UO-31 = assay: as above
SNB-75 = assay: panel of 60 human tumor cell lines, growth inhibition (CNS Cancer)
M14 = assay: panel of 60 human tumor cell lines, growth inhibition (Melanoma)
SK-OV-3 = assay: panel of 60 human tumor cell lines, growth inhibition (Ovarian Cancer)
HCT-15 = assay: panel of 60 human tumor cell lines, growth inhibition (Colon Cancer); details: HCT-15

With `C=C1C(=O)O[C@H]2[C@H]1CC/C(COC(=O)NCCc1ccccn1)=C\CC[C@@]1(C)O[C@@H]21` [JVM 61, ((1aR,7aS,10aS,10bS,E)-1a-methyl-8-methylene-9-oxo-1a,2,3,6,7,7a,8,9,10a,10b-decahydrooxireno[2′,3′:9,10]cyclodeca[1,2-b]furan-5-yl)methyl-(2-(pyridin-2-yl)ethyl)carbamate] the GI50 (UACC-62; Homo sapiens, UACC-62) was 6.29 µM, the CC50 (UACC-62; Homo sapiens, UACC-62, read-out: LC50) was 49 µM and the IC (TGI) (UACC-62; Homo sapiens, UACC-62, read-out: TGI) was 20.3 µM. For the same compound, the “Percent Growth” value (UACC-62; UACC-62, Log10 Concentration −4.0) was −90%, the “Percent Growth” value (UACC-62; UACC-62, Log10 Concentration −5.0) was 40% and the “Percent Growth” value (UACC-62; UACC-62, Log10 Concentration −6.0) was 89%. For the same compound, the “Percent Growth” value (UACC-62; UACC-62, Log10 Concentration −7.0) was 92%, the “Percent Growth” value (UACC-62; UACC-62, Log10 Concentration −8.0) was 100% and the “Percent Growth” value (DU-145; DU-145, Log10 Concentration −4.0) was −87%. For the same compound, the “Percent Growth” value (DU-145; DU-145, Log10 Concentration −5.0) was 26%, the “Percent Growth” value (DU-145; DU-145, Log10 Concentration −6.0) was 97% and the “Percent Growth” value (DU-145; DU-145, Log10 Concentration −7.0) was 108%. For the same compound, the “Percent Growth” value (DU-145; DU-145, Log10 Concentration −8.0) was 102%, the GI50 (DU-145; Homo sapiens, DU-145) was 4.59 µM and the CC50 (DU-145; Homo sapiens, DU-145, read-out: LC50) was 47 µM. For the same compound, the IC (TGI) (DU-145; Homo sapiens, DU-145, read-out: TGI) was 16.9 µM, the GI50 (RXF 393; Homo sapiens) was 2.22 µM and the GI50 (RXF 393; Homo sapiens, 5-dose assay) was 2.22 µM. For the same compound, the CC50 (RXF 393; Homo sapiens, RXF 393, read-out: LC50) was 45 µM, the IC (TGI) (RXF 393; Homo sapiens, RXF 393, read-out: TGI) was 15.5 µM and the “Percent Growth” value (RXF 393; Log10 Concentration −4.0) was −77%. For the same compound, the “Percent Growth” value (RXF 393; Log10 Concentration −5.0) was 2%, the “Percent Growth” value (RXF 393; Log10 Concentration −6.0) was 76% and the “Percent Growth” value (RXF 393; Log10 Concentration −8.0) was 101%. For the same compound, the GI50 (UO-31; Homo sapiens, UO-31) was 6.38 µM, the CC50 (UO-31; Homo sapiens, UO-31, read-out: LC50) was 51.3 µM and the IC (TGI) (UO-31; Homo sapiens, UO-31, read-out: TGI) was 20.8 µM. The “Percent Growth” value (UO-31; UO-31, Log10 Concentration −4.0) was −87%, the “Percent Growth” value (UO-31; UO-31, Log10 Concentration −5.0) was 40% and the “Percent Growth” value (UO-31; UO-31, Log10 Concentration −6.0) was 89%. The “Percent Growth” value (UO-31; UO-31, Log10 Concentration −7.0) was 93%, the “Percent Growth” value (UO-31; UO-31, Log10 Concentration −8.0) was 93% and the GI50 (SNB-75; Homo sapiens, SNB-75) was 3.78 µM. For the same compound, the CC50 (SNB-75; Homo sapiens, SNB-75, read-out: LC50) was 48.4 µM, the IC (TGI) (SNB-75; Homo sapiens, SNB-75, read-out: TGI) was 18.6 µM and the “Percent Growth” value (SNB-75; SNB-75, Log10 Concentration −4.0) was −88%. The “Percent Growth” value (SNB-75; SNB-75, Log10 Concentration −5.0) was 32%, the “Percent Growth” value (SNB-75; SNB-75, Log10 Concentration −6.0) was 74% and the “Percent Growth” value (SNB-75; SNB-75, Log10 Concentration −7.0) was 76%. The “Percent Growth” value (SNB-75; SNB-75, Log10 Concentration −8.0) was 81%, the GI50 (M14; Homo sapiens, M14) was 5.58 µM and the CC50 (M14; Homo sapiens, M14, read-out: LC50) was 66.7 µM. For the same compound, the IC (TGI) (M14; Homo sapiens, M14, read-out: TGI) was 21.6 µM, the “Percent Growth” value (M14; M14, Log10 Concentration −4.0) was −68% and the “Percent Growth” value (M14; M14, Log10 Concentration −5.0) was 34%. For the same compound, the “Percent Growth” value (M14; M14, Log10 Concentration −6.0) was 97%, the “Percent Growth” value (M14; M14, Log10 Concentration −7.0) was 102% and the “Percent Growth” value (M14; M14, Log10 Concentration −8.0) was 100%. The GI50 (SK-OV-3; Homo sapiens, SK-OV-3) was 26.2 µM, the CC50 (SK-OV-3; Homo sapiens, SK-OV-3, read-out: LC50) was greater than 100 µM and the IC (TGI) (SK-OV-3; Homo sapiens, SK-OV-3, read-out: TGI) was 97.4 µM. For the same compound, the “Percent Growth” value (SK-OV-3; SK-OV-3, Log10 Concentration −4.0) was −1%, the “Percent Growth” value (SK-OV-3; SK-OV-3, Log10 Concentration −5.0) was 87% and the “Percent Growth” value (SK-OV-3; SK-OV-3, Log10 Concentration −6.0) was 103%. The “Percent Growth” value (SK-OV-3; SK-OV-3, Log10 Concentration −7.0) was 187%, the “Percent Growth” value (SK-OV-3; SK-OV-3, Log10 Concentration −8.0) was 106% and the “Percent Growth” value (HCT-15; Log10 Concentration −4.0) was −81%. The “Percent Growth” value (HCT-15; Log10 Concentration −5.0) was 22%, the “Percent Growth” value (HCT-15; Log10 Concentration −6.0) was 89% and the “Percent Growth” value (HCT-15; Log10 Concentration −7.0) was 97%.
